# Patent publication US20230247987A1, “THE USE OF SAFENERS TO IMPROVE TOLERANCE OF ACCASE TOLERANT SORGHUM CROP TO HERBICIDES” (Adama Agan Ltd., priority 2020, published 2023)
# Columns and labels:
# Assay type in all cases: in vivo
# [1] = test system: shattercane (Sorghum bicolor); assay: Field trial: control of shattercane; conditions: after 7 days
# Setaria viridis = assay: Field trials: control of Setaria viridis
# Panicum miliace = assay: Field trials: control of Panicum miliace
# [2] = test system: ACCase tolerant sorghum variety BTX430-CHR-ACC1; assay: Greenhouse crop response of ACCase tolerant sorghum to quizalofop with and without isoxadifen; conditions: FIG. 1, X-rates 0.5-8 (Quizalofop 39-616 g/ha, Isoxadifen 27-431 g/ha), rated approximately 14 days after application, versus quizalofop without isoxadifen
# Excerpt: Seeds of the proprietary ACCase tolerant sorghum variety BTX430-CHR-ACC1 (ATCC deposit PTA-125106, mutation W1999C) were supplied by S&W. BTX430-CHR-ACC1 sorghum cultivar contains a single mutation in the ACCase gene that confers ACCase tolerance: Tryptophan to Cysteine amino acid substitution at an amino acid position 1999 (W1999C; SEQ ID NO: 7 as disclosed in WO 2018/222715, namely the sequence denoted herein by SEQ ID NO: 6) aligning with the amino acid sequence of SEQ ID NO: 6 (as disclosed in WO 2018/222715, namely the sequence denoted herein by SEQ ID NO: 5). The mutation provides tolerance to quizalofop.
# ACCase tolerant Sorghum seeds (S & W Line ID: T19-90001) were planted in commercial greenhouse soil mix in ˜8-cm square pots.
# Plants were started in a greenhouse and placed outdoors at ambient air temperatures when temperatures were conducive to sorghum growth.
# Soil fertility and moisture were provided on an as needed basis.
# Plants were grown to heights of 10 to 13, 15-18, 20 to 25 and 30 to 35 cm for treatment.
# Safener was premixed in the ADM.7000.H.2.A formulation.
# Sorghum plants were subjected to “Standard Weed Science Percentage Rankings” where 0=no effect of the herbicide and 100%=complete plant death. Injury represents discoloration, stunting and malformation. Ratings were taken approximately 14 days after herbicide application. […]
# [3] = Table 4 trial, after 33 days, X-rate 0.5: Quizalofop 5 oz/a, Isoxadifen 5 oz/a or none
# [4] = Table 4 trial, after 33 days, X-rate 1: Quizalofop 10 oz/a, Isoxadifen 10 oz/a or none
# [5] = Table 4 trial, after 33 days, X-rate 2: Quizalofop 20 oz/a, Isoxadifen 20 oz/a or none
# [6] = Table 5 second trial, after 27 days, X-rate 0.5: Quizalofop 5 oz/a, Isoxadifen 5 oz/a or none
# [7] = Table 5 second trial, after 27 days, X-rate 1: Quizalofop 10 oz/a, Isoxadifen 10 oz/a or none
# [8] = Table 5 second trial, after 27 days, X-rate 2: Quizalofop 20 oz/a, Isoxadifen 20 oz/a or none
SMILES,"% control Shattercane ([1]; X-rate 0.5: Quizalofop 5 oz/a, Isoxadifen 5 oz/a or none)","% control Shattercane ([1]; X-rate 1: Quizalofop 10 oz/a, Isoxadifen 10 oz/a or none)","% control Shattercane ([1]; X-rate 2: Quizalofop 20 oz/a, Isoxadifen 20 oz/a or none)",% control Setaria viridis (Setaria viridis; [3]),% control Setaria viridis (Setaria viridis; [4]),% control Setaria viridis (Setaria viridis; [5]),% control Setaria viridis (Setaria viridis; [6]),% control Setaria viridis (Setaria viridis; [7]),% control Setaria viridis (Setaria viridis; [8]),% control Panicum miliace (Panicum miliace; [3]),% control Panicum miliace (Panicum miliace; [4]),% control Panicum miliace (Panicum miliace; [5]),% control Panicum miliace (Panicum miliace; [6]),% control Panicum miliace (Panicum miliace; [7]),% control Panicum miliace (Panicum miliace; [8]),crop response (percentage of sorghum crop displaying phytotoxicity) against the X-Rate [2]
"CCOC(=O)[C@@H](C)Oc1ccc(Oc2cnc3cc(Cl)ccc3n2)cc1 [Quizalofop, quizalofop P-ethyl]",96.8%,96.8%,99%,100%,100%,100%,100%,100%,100%,100%,100%,100%,100%,100%,100%,
O=C(O)C1=NOC(c2ccccc2)(c2ccccc2)C1 [isoxadifen],,,,,,,,,,,,,,,,significant decrease of crop response
